Measurements taken from patent US20060223874A1, “Heterocyclic reverse transcriptase inhibitors” (Roche Palo Alto LLC, priority 2005, published 2006).

How the values were obtained:
Wild Type HIV-RT = Wild Type HIV-RT (Human immunodeficiency virus type 1 group M subtype B, UniProt P03366); experiment: HIV Reverse Transcriptase Assay: Inhibitor IC50 Determination; type: biochemical; conditions: purified recombinant HIV-1 RT, poly(rA)/oligo(dT)16 template-primer, 37° C. for 30 min
Method: HIV Reverse Transcriptase Assay: Inhibitor IC50 Determination
HIV-1 RT assay was carried out in 96-well Millipore MultiScreen MADVNOB50 plates using purified recombinant enzyme and a poly(rA)/oligo(dT)16 template-primer in a total volume of 50 μL. The assay constituents were 50 mM Tris/HCl, 50 mM NaCl, 1 mM EDTA, 6 mM MgCl2, 5 μM dTTP, 0.15 μCi [^3H] dTTP, 5 μg/ml poly (rA) pre annealed to 2.5 μg/ml oligo (dT)16 and a range of inhibitor concentrations in a final concentration of 10% DMSO. Reactions were initiated by adding 4 nM HIV-1 RT and after incubation at 37° C. for 30 min, they were stopped by the addition of 50 μl ice cold 20% TCA and allowed to precipitate at 4° C. for 30 min. The precipitates were collected by applying vacuum to the plate and sequentially washing with 3×200 μl of 10% TCA and 2×200 μl 70% ethanol. Finally, the plates were dried and radioactivity counted in a Packard TopCounter after the addition of 25 μl scintillation fluid per well. IC50's were calculated by plotting % inhibition versus log10 inhibitor concentrations. (TABLE 2)

COc1ccc(Cc2n[nH]c(=O)n2C)c(F)c1Oc1cc(C#N)cc(C(F)F)c1 [Compound I-2, 3-Difluoromethyl-5-[2-fluoro-6-methoxy-3-(4-methyl-5-oxo-4,5-dihydro-1H-[1,2,4]triazol-3-ylmethyl)-phenoxy]-benzonitrile]
IC50 (Wild Type HIV-RT): 0.0129 µM

COc1ccc(Cc2n[nH]c(=O)n2C)c(F)c1Oc1cc(Cl)cc(C#N)c1 [Compound I-1, 3-chloro-5-[2-fluoro-6-methoxy-3-(4-methyl-5-oxo-4,5-dihydro-1H-[1,2,4]triazol-3-ylmethyl)-phenoxy]-benzonitrile]
melting point: 219.1 to 220.1 °C | IC50 (Wild Type HIV-RT): 0.0456 µM
